# Test results: patent US12655174B2, “Adenosine A3 receptor agonists, preparation methods and uses thereof” (ZHEJIANG VIMGREEN PHARMACEUTICALS, LTD., priority 2020, dated 2026)
# Tests used:
# ADORA3 receptor = molecular target: T1, ADORA3 receptor (Homo sapiens, UniProt P0DMS8); assay: Agonistic effect on adenosine A3 receptor by FLIPR assay (calcium flux assay); assay type: cell-based; conditions: agonist mode
# T1 sequence (P0DMS8 1-318): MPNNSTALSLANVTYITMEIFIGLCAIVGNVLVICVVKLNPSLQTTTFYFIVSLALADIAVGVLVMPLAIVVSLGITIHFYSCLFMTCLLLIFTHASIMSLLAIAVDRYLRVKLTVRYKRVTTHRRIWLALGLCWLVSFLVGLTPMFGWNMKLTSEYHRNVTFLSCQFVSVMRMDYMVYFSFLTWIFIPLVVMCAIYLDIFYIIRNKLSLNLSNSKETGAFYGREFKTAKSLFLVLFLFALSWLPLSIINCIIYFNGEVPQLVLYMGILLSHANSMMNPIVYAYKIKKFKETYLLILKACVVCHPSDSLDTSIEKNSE
# Experimental: Example 27: Agonistic Effect of Compound on Adenosine A3 Receptor by FLIPR Assay (Calcium Flux Assay)
# First Day: Cell Inoculation
# • 1) With regard to ADORA3 receptor, cultured cells were used for inoculation: the culture medium was aspirated and the cells were washed twice with 10 mL of DPBS. 2 mL of 0.05% EDTA-trypsin was added and the cells were incubated at 37° C. for 1 minute. Then 10 mL of the culture medium was added to stop the digestion and the cell suspension was transferred to a 50-mL tapered tube. • 2) The 50-mL tapered tube containing the various cells was centrifuged at 300 g for 5 minutes. • 3) A supernatant was aspirated and no cells should be aspirated. • 4) The cell precipitate was resuspended in 6-8 mL of the culture medium, and then 0.5 mL of the cells were taken out for cell counting by using a Vi-cell XR cell viability analyzer. • 5) The cell suspension was diluted to 1×10^6 cells/mL (20 μL of 20,000 cells per well) in the culture medium and the cells were inoculated into a cell plate (384-well Poly-D-lysine protein-coated plate, Greiner-781946). • 6) The plate was placed in a 37° C./5% CO2 incubator for 16-20 hours. Second Day: • 1) Preparation of 2×Fluo-4 Direct™ uptaking dye • a. Preparation of probenecid solution • 1 mL of FLIPR assay buffer was added to 77 mg of probenecid (provided by Fluo-4 Direct™ calcium assay kit) to be prepared into 250 mM of a probenecid solution. The fresh probenecid solution was used daily. • b. 2×(8 μM) Fluo-4 Direct™ loading dye (per 10 mL)
# A vial of the Fluo-4 Direct™ crystal was thawed and then 10 mL of the FLTPR analytical buffer was added to the vial. Then 0.2 mL of 250 mM of a probe solution was added to every 10 mL Fluo-4 Direct™ crystal to a final assay concentration of 2.5 mM. The solution was vortexed and stood for >5 min at a dark place. 2×Fluo-4 Direct™ uptaking dye was freshly prepared daily. • 2) Compound preparation • a. Preparation of compound plate: all reference and test compounds were serially diluted 4-fold in 10 points by using an Echo liquid processor and then 900 nL of the diluted compounds were transferred to a compound plate. • b. 30 μL FLIPR analytical buffer was added to the compound plate and the plate was centrifuged at 300 g for 1 minute. • 3) FLIPR analysis • a. With regard to ADORA3 receptor: firstly, the cell plate was taken out from a culture box. The culture medium was then aspirated and 20 μL of the FLIPR analytical buffer was added. The cell plate was placed in an incubator for 45 minutes and at a room temperature for 15 minutes. • b. To run an experimental solution on […], 10 μL of the FLIPR analytical buffer was transferred from the compound plate to a cell plate, and then the fluorescent signal was read. Then 10 μL of a compound solution was transferred from the compound plate to the cell plate and the fluorescence signal was read. “Max−min” was calculated from Reader 91 to an allowed maximum value. • c. With regard to agonist: activation %=(RLU−LC)/(HC−LC)*100, • wherein RLU=relative light unit, allowed maximum signal was 91; HC=average signal of high concentration agonist; and LC=mean signal of DMSO well. • d. Data were fitted to a model “log (agonist) versus response-variable slope” by using GraphPad Prism 5 to determine an EC50 value. • e. […] 2. Test Result
# [1] = Pharmacokinetic test of compound in SD rat; assay type: in vivo; conditions: SD rats, intragastric administration (IG), cassette dosing
# Experimental: Example 28: Pharmacokinetic Test of Compound in SD Rat
# The animal species used in this experiment were SD rats. There were 3 animals per group. The rats were dosed in cassette format, i.e., multiple (1-6) different compounds were dosed simultaneously to the same group of the SD rats. The vehicle used for the drug was 5% DMSO+5% Solutl+90% ([…] methylcellulose M450), and the administration route was intragastric administration (IG).
# [2] = molecular target: T2, ADORA3 receptor (CHO cells stably expressing ADORA3 receptor) (Homo sapiens, UniProt P0DMS8); assay: Effect of compound on intracellular cAMP level by adenosine A3 receptor agonism; assay type: cell-based; conditions: forskolin-stimulated
# T2 construct: expressed in transfected cells
# T2 sequence (P0DMS8 1-318): T1 sequence (P0DMS8 1-318)
# Experimental: Example 26: Test the Effect of Compound on Intracellular cAMP Level by Adenosine A3 Receptor Agonism
# • 1) 1×HBSS with Ca2+ and Mg2+ (14 mL), 1 M HEPES (75 μL), a 7.5% (w/v) BSA stabilizer (pH 7.4, 200 μL), and 20 mM rolipram (7.5 μL) were respectively prepared as cAMP assay buffer. • 2) Preparation of compound source plate • a. […] A 10 mM stock solution was subjected to a 3-fold serial dilution by 100% (v/v) DMSO to prepare 10 doses of the test substance. • c. 1 mM of Forskolin was prepared by 100% (v/v) DMSO. • 3) Preparation of test plate • a. Prior to the assay, CHO cells stably expressing ADORA3 receptor were harvested and the cells were counted by using a Countess cell counter. […] The cells were seeded at a density of 2,000 cells/well in a 384-well plate. • 4) 10 nL/well of the serially diluted compound and 10 nL/well of 1 mM of forskolin were transferred to each well with ADORA3 receptor expressing cells by using Echo550. • 5) A cell plate was centrifuged at 1,000 rpm for 1 minute and then stirred at 600 rpm for 2 minutes. The plate was incubated at 37° C. • 6) An Eu-cAMP tracer working solution and an Ulight-anti-cAMP working solution were prepared according to the following table.
# • 7) 5 μl/well of the Eu-cAMP tracer working solution and 5 μl/well of the Ulight-anti-cAMP working solution were added to each well of the plate. […] 2. Data Analysis • 1) An activation percentage was calculated by using the following formula:
# [formula] • % Activation: activation percentage • Ratiocpd: ratio of emissivity of test compound • RatioLow control: ratio of low emissivity • RatioHigh control: ratio of high emissivity • 2) EC50 was calculated by an XLfit using the Hill equation to fit the activity percentage and a log of a compound concentration. 3. Test Result
SMILES,EC50 (ADORA3 receptor),AUC_D [1],EC50 [2]
"CNC(=O)[C@H]1OC(n2cnc3c(NCc4cc(C)cc(C)c4)nc(-c4cccnc4)nc32)[C@H](O)[C@@H]1O (stereo in doubt) [compound 297, (2S,3S,4R,5S)-5-(6-((3,5-dimethylbenzyl)amino)-2-(pyridin-3-yl)-9H-purin-9-yl)-3,4-dihydroxyl-N-methyltetrahydrofuran-2-carboxamide]",12.9 nM,2349.41 kg·ng·h/mL/mg,
"CNC(=O)[C@H]1OC(n2cnc3c(NCc4cc(C)cc(C)c4)nc(-c4cncc(OC)c4)nc32)[C@H](O)[C@@H]1O (stereo in doubt) [compound 298, (2S,3S,4R,5S)-5-(6-((3,5-dimethylbenzyl)amino)-2-(5-methoxypyridin-3-yl)-9H-purin-9-yl)-3,4-dihydroxyl-N-methyltetrahydrofuran-2-carboxamide]",37 nM,4423.94 kg·ng·h/mL/mg,
"CCNC(=O)[C@H]1O[C@@H](n2cnc3c(NC)nc(-c4cccnc4)nc32)[C@H](O)[C@@H]1O [compound 42, (2S,3S,4R,5R)-N-ethyl-3,4-dihydroxyl-5-(6-(methylamino)-2-(pyridin-3-yl)-9H-purin-9-yl)-tetrahydrofuran-2-formamide]",12.7 nM,,
"CCNC(=O)[C@H]1O[C@@H](n2cnc3c(NC)nc(-c4cncc(F)c4)nc32)[C@H](O)[C@@H]1O [compound 43, (2S,3S,4R,5R)-N-ethyl-5-(2-(5-fluoropyridin-3-yl)-6-(methylamino)-9H-purin-9-yl)-3,4-dihydroxyl-tetrahydrofuran-2-formamide]",11.4 nM,87.99 kg·ng·h/mL/mg,
"CCNC(=O)[C@H]1O[C@@H](n2cnc3c(NC)nc(-c4cncc(C)c4)nc32)[C@H](O)[C@@H]1O [compound 72, (2S,3S,4R,5R)-N-ethyl-3,4-dihydroxyl-5-(6-(methylamino)-2-(5-methylpyridin-3-yl)-9H-purin-9-yl)tetrahydrofuran-2-carboxamide]",20.6 nM,75.08 kg·ng·h/mL/mg,
"CCNC(=O)[C@H]1O[C@@H](n2cnc3c(NC)nc(-c4cncc(OC)c4)nc32)[C@H](O)[C@@H]1O [compound 73, (2S,3S,4R,5R)-N-ethyl-3,4-dihydroxyl-5-(2-(5-methoxypyridin-3-yl)-6-(methylamino)-9H-purin-9-yl)tetrahydrofuran-2-carboxamide]",29.6 nM,,
"CCNC(=O)[C@H]1O[C@@H](n2cnc3c(NC)nc(-c4cncc(Cl)c4)nc32)[C@H](O)[C@@H]1O [compound 90, (2S,3S,4R,5R)-5-(2-(5-chloropyridin-3-yl)-6-(methylamino)-9H-purin-9-yl)-N-ethyl-3,4-dihydroxyltetrahydrofuran-2-carboxamide]",25.2 nM,,
"CNC(=O)[C@H]1O[C@@H](n2cnc3c(NCc4cc(C)ccn4)nc(-c4cncc(C)c4)nc32)[C@H](O)[C@@H]1O [compound 190, (2S,3S,4R,5R)-3,4-dihydroxyl-N-methyl-5-(6-((4-methylpyridin-2-yl)methylamino)-2-(5-methylpyridin-3-yl)-9H-purin-9-yl)-tetrahydrofuran-2-formamide]",9.06 nM,2205.59 kg·ng·h/mL/mg,
"CNC(=O)[C@H]1O[C@@H](n2cnc3c(NCc4cc(C)ccc4F)nc(-c4cccnc4)nc32)[C@H](O)[C@@H]1O [compound 191, (2S,3S,4R,5R)-5-(6-(2-fluoro-5-methylbenzylamino)-2-(pyridin-3-yl)-9H-purin-9-yl)-3,4-dihydroxyl-N-methyl-tetrahydrofuran-2-formamide]",5.29 nM,1183.39 kg·ng·h/mL/mg,
"CNC(=O)[C@H]1O[C@@H](n2cnc3c(NCc4cc(C)ccc4F)nc(-c4cncc(F)c4)nc32)[C@H](O)[C@@H]1O [compound 192, (2S,3S,4R,5R)-5-(6-(2-fluoro-5-methylbenzylamino)-2-(5-fluoropyridin-3-yl)-9H-purin-9-yl)-3,4-dihydroxyl-N-methyl-tetrahydrofuran-2-formamide]",9.24 nM,3329.08 kg·ng·h/mL/mg,
"CNC(=O)[C@H]1O[C@@H](n2cnc3c(NCc4cc(C)ccc4F)nc(-c4cncc(C)c4)nc32)[C@H](O)[C@@H]1O [compound 193, (2S,3S,4R,5R)-5-(6-(2-fluoro-5-methylbenzylamino)-2-(5-methylpyridin-3-yl)-9H-purin-9-yl)-3,4-dihydroxyl-N-methyl-tetrahydrofuran-2-formamide]",10.9 nM,2969.40 kg·ng·h/mL/mg,
"CNC(=O)[C@H]1O[C@@H](n2cnc3c(NCc4cc(C)ccc4F)nc(-c4cncc(OC)c4)nc32)[C@H](O)[C@@H]1O [compound 194, (2S,3S,4R,5R)-5-(6-(2-fluoro-5-methylbenzylamino)-2-(5-methoxypyridin-3-yl)-9H-purin-9-yl)-3,4-dihydroxyl-N-methyl-tetrahydrofuran-2-formamide]",10.7 nM,2043.13 kg·ng·h/mL/mg,
"CNC(=O)[C@H]1O[C@@H](n2cnc3c(NCc4cc(C(F)(F)F)ccn4)nc(-c4cncc(Cl)c4)nc32)[C@H](O)[C@@H]1O [compound 294, (2S,3S,4R,5R)-5-(2-(5-chloropyridin-3-yl)-6-(((4-(trifluoromethyl)pyridin-2-yl)methyl)amino)-9H-purin-9-yl)-3,4-dihydroxyl-N-methyltetrahydrofuran-2-carboxamide]",,639.00 kg·ng·h/mL/mg,2.62 nM
CNC(=O)[C@H]1O[C@H](n2cnc3c(NCc4cccc(C)c4)nc(-c4cncc(OC)c4)nc32)[C@H](O)[C@@H]1O [compound 300],,729.20 kg·ng·h/mL/mg,2.13 nM
